This is an account of results in US8629103B2, “Treatment of non-proliferative cystic disease of the breast” (New York University, priority 2010, dated 2014).

Assay [1] has as its system IGF-I receptor, ERK, and AKT. The assay is described as follows: Western blots of phosphorylation of IGF-I receptor, ERK and AKT in treated Brca1LoxP/Brca1LoxP mice. The assay is classed as in vivo. The note with it: 4 month old Brca1LoxP/Brca1LoxP females; 7 days; PQ401 100 mg/kg thrice a week intraperitoneal; pasireotide 10 μg/kg/h by Alzet pump. The method, then: Western blots showing that the increased phosphorylation of IGF-I receptor and its downstream mediators ERK and AKT in Brca1^LoxP/Brca1^LoxP females is reduced by treatment with 100 mg/kg PQ401 thrice a week and 10 μg/kg/h pasireotide. The two WT samples are from age-matched, untreated C57Bl/6 control mice. PQ401 was administered by intraperitoneal injections, pasireotide by Alzet pump Model 2001. For both drugs, the course of treatment was 7 days.
FIG. 6 depicts Western blots showing the effects of IGF-I inhibition on the phosphorylation of IGF-I receptor, ERK, and AKT in 4 month old Brca1^LoxP/Brca1^LoxP. The increased phosphorylation of IGF-I receptor and its downstream mediators ERK and AKT in Brca1^LoxP/Brca1^LoxP females is reduced by treatment with 100 mg/kg PQ401 thrice a week and 10 μg/kg/h pasireotide. The two WT samples are from age-matched, untreated C57Bl/6 control mice. PQ401 was administered by intraperitoneal injections, pasireotide by Alzet pump Model 2001. For both drugs, the course of treatment was 7 days.

In assay [2] the test system is Brca1^LoxP/Brca1^LoxP mice. The assay is described as follows: Mammary gland phenotype (whole mounts, hematoxylin-eosin sections, duct width, HANs) of treated Brca1LoxP/Brca1LoxP mice. The assay is classed as in vivo. The settings on record: for mammary gland phenotype (whole mounts, histology): 7 days; for width of mammary gland ducts / ductal dilatation: 10 μg/kg/h for 7 days by Alzet pump, vs vehicle (water). Here is the method: Representative whole mounts of mammary glands from 4 month old Brca1^LoxP/Brca1^LoxP females treated with water (upper photomicrographs) or 10 μg/kg/h pasireotide (lower photomicrographs) for 7 days. Both water and pasireotide were administered by Alzet pump Model 2001.
FIG. 8 depicts effects of pasireotide on the mammary gland phenotype of Brca1^LoxP/Brca1^LoxP mice. Representative hematoxylin-eosin sections of mammary glands from 4 month old Brca1^LoxP/Brca1^LoxP females treated with water (left) or pasireotide (center and right) for 7 days. Both water and pasireotide were administered by Alzet pump Model 2001. The dosage of pasireotide was 10 μg/kg/h.
FIG. 9 depicts effects of pasireotide on duct width of mammary glands of Brca1^LoxP/Brca1^LoxP mice. […] Both water and pasireotide were administered by Alzet pump Model 2001. Six animals were treated with pasireotide and five animals were treated with water (control). […]
The present inventor has made the surprising discovery that mice comprising loxP sites flanking exon 11 of the BRCA1 gene (formally known as Brca1^loxP/loxP, but also referred to herein as LoxP mice) display profoundly abnormal mammary gland development at an early age. LoxP mice were acquired from the National Institutes of Health Mouse Repository. The strain is Stock Brcal^tm2Cxd and the Strain code is 01XC8. Mice were maintained in accordance with the standards established by the Association for Assessment and Accreditation of Laboratory Animal Care (AAALAC) (New York University).
Representative whole mounts of mammary glands from 4 month old Brca1^LoxP/Brca1^LoxP females treated with water (upper photomicrographs) or 10 μg/kg/h pasireotide (lower photomicrographs) for 7 days are shown. Both water and pasireotide were administered by Alzet pump Model 2001. […] These findings were confirmed on a histological level as shown in FIG. 8 which depicts representative hematoxylin-eosin sections of mammary glands from 4 month old Brca1^LoxP/Brca1^LoxP females treated with water (left) or pasireotide (center and right) for 7 days. Both water and pasireotide (10 μg/kg/h) were administered by Alzet pump Model 2001. […] Both water and pasireotide were administered by Alzet pump Model 2001. […]

For assay [3], the system named is Ki67-positive epithelial cells in the mammary glands. In words: Ki67 immunohistochemistry of mammary epithelial cells in treated Brca1LoxP/Brca1LoxP mice. The note with it: 4 month old Brca1LoxP/Brca1LoxP mice; 7 days of treatment; vs vehicle. The assay is classed as in vivo. The source says: The frequency of Ki67-positive mammary epithelial cells in C57Bl/6 controls treated with water (WT, water) is also presented. *, p<0.05 as compared with WT, water; **, p<0.01 as compared with WT, water; a, p<0.05 as compared with LoxP, water; b, p<0.01 as compared with LoxP, water.
The frequency of Ki67-positive mammary epithelial cells in C57Bl/6 controls treated with water (WT, water) is also presented. *, p<0.05 as compared with WT, water; **, p<0.01 as compared with WT, water; a, p<0.05 as compared with LoxP, water; b, p<0.01 as compared with LoxP, water. […] This finding is significant because Ki67 is a cancer antigen that is found in growing, dividing cells, but is absent in the resting phase of cell growth. Accordingly, Ki67 is viewed as a good tumor cell marker.

A further assay concerns the target IGF-I receptor (Homo sapiens, UniProt P08069). The note with it: cited from earlier work.
Assay [4] relates to growth hormone and estradiol induced mammary hyperplasia. The note with it: Kleinberg et al. 2011; cited from earlier work.
The next assay relates to breast cancer. The settings on record: women with certain hyperplastic lesions of the breast; clinical evidence; cited from earlier work.
The test system of the next assay is somatostatin receptors. The note with it: cited from earlier work; for somatostatin receptors bound: of the 5 somatostatin receptors.
The subject of assay [5] is mammary development in rats. The settings on record: Ruan et al. 2006; cited from earlier work.
[6] abbreviates: 4 month old Brca1LoxP/Brca1LoxP females, pasireotide 10 μg/kg/h Alzet pump vs water, PQ401 intraperitoneal vs 8% ethanol/Tween 80 in PBS.

Entries after “also recorded” stand apart in the source; their conditions may differ. Starred links: 1 amine or outer side, 2 acyl side, 3 side chain; linkers in the order of their positions; H or OH if unused. Non-standard residues stand in square brackets, D forms with d. Residues, ends and D or L forms follow the SMILES beside them. Groups on a side chain read outwards from the residue. *: point of attachment. Ethylenediamine = C(CN[*:2])N[*:1]; Hyp = O=C(O)[C@@H]1C[C@@H](O)CN1; Phg = N[C@H](C(=O)O)c1ccccc1; CO = O=C([*:1])[*:2]; Bn = c1ccc(C*)cc1

IGF-I receptor, sequence (P08069 31-1367, species assumed): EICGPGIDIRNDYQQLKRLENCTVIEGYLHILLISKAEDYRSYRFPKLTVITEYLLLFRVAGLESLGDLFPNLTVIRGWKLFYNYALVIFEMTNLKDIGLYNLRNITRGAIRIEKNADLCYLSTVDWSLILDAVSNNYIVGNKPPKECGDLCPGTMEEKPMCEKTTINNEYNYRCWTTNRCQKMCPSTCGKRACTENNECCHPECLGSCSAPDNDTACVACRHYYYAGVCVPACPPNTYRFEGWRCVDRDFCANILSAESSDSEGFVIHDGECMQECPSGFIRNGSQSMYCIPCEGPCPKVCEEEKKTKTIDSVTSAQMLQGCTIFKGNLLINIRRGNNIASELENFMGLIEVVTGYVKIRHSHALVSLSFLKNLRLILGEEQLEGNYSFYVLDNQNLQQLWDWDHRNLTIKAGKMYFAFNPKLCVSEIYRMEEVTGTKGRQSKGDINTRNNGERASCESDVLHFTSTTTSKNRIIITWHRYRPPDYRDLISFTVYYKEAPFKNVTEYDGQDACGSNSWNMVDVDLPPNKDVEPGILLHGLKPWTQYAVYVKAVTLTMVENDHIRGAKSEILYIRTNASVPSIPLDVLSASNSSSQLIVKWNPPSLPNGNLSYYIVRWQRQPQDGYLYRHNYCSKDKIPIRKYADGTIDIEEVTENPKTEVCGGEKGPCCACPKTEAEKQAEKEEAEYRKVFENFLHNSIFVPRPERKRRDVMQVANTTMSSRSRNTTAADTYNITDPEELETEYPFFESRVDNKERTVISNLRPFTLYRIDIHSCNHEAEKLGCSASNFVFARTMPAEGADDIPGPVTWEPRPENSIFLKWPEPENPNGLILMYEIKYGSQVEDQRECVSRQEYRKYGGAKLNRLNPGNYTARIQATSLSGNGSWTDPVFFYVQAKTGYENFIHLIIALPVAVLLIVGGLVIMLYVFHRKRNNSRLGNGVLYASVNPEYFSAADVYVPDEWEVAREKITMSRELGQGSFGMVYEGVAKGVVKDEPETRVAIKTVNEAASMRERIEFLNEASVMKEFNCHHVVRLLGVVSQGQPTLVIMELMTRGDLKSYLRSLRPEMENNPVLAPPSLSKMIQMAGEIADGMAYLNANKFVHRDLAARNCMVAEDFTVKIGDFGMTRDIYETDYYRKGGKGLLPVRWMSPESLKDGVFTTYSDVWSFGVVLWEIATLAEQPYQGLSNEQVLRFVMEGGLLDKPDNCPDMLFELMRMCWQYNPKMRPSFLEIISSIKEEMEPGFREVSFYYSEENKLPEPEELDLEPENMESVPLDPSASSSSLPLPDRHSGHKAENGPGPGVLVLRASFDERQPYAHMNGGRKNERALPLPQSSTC

Take `COc1ccc(Cl)cc1NC(=O)Nc1cc(C)nc2ccccc12` [PQ401]: in assay [1], the “phosphorylation of IGF-I receptor and its downstream mediators ERK and AKT” value is “reduced”. In assay [2] (setting [6]), the “mammary gland phenotype (whole mounts, histology)” value is “dramatically reduces”. Further, the “Ki67-positive epithelial cells in the mammary glands (cell proliferation)” value in assay [3] is “reduces; also recorded: significantly reduced”. Besides, the IGF-I receptor inhibition result on IGF-I receptor is “very potent and specific”.
On to `CC/C(=C(\c1ccccc1)c1ccc(OCCN(C)C)cc1)c1ccccc1` [tamoxifen], for which, in assay [4], the “growth hormone and estradiol induced mammary hyperplasia” value is on record as “prevent”. Also, the “prevention of the development of cancer” value in the assay on breast cancer was “about 50%”.
On to somatostatin-14 [SS-14], for which the “mammary gland phenotype (whole mounts, histology)” value in assay [2] (9 month old Brca1LoxP/Brca1LoxP females, Alzet pump, vs water) is “reduces”. Besides, the “number of HANs” value in assay [2] (nine month old LoxP animals treated for a week) was “impressive reduction”. In the assay on somatostatin receptors, the somatostatin receptors bound entry is recorded as “all”.
With `NCCCC[C@@H]1NC(=O)[C@@H](Cc2c[nH]c3ccccc23)NC(=O)[C@H](c2ccccc2)NC(=O)[C@@H]2C[C@@H](OC(=O)NCCN)CN2C(=O)[C@H](Cc2ccccc2)NC(=O)[C@H](Cc2ccc(OCc3ccccc3)cc2)NC1=O` [pasireotide] (cyclo([Hyp]([CO-Ethylenediamine])[Phg][dW]KY(Bn)F)), the “phosphorylation of IGF-I receptor and its downstream mediators ERK and AKT” value in assay [1] is “reduced”. Moreover, the “width of mammary gland ducts / ductal dilatation” value in assay [2] (4 month old Brca1LoxP/Brca1LoxP females) is on record as “effective in decreasing”. Moreover, in assay [2] (4 month old Brca1LoxP/Brca1LoxP females, listed as SOM230), the “width of mammary gland ducts / ductal dilatation” value was “significant effect on inhibiting; also recorded: significantly reduced”. Also, in assay [2] (setting [6]), the “mammary gland phenotype (whole mounts, histology)” value was “dramatically reduces”. For the same compound, the “formation of HANs (hyperplastic alveolar nodules)” value in assay [2] (LoxP mice at 4 months of age treated with SOM230) was “preventing”. In addition, in assay [2] (affected LoxP animals, SOM230 or control vehicle for 1 week), the number of ducts result is reported as “unchanged”. Also, in assay [3], the “Ki67-positive epithelial cells in the mammary glands (cell proliferation)” value is recorded as “reduces; also recorded: significantly reduced”. For the same compound, in the assay on somatostatin receptors, the “affinity for SSTR3 and/or SSTR5 receptors” value was “has affinity” and the somatostatin receptors bound is reported as 4 of the 5. Moreover, in assay [5], the “IRS-1 phosphorylation in the mammary gland (IGF-I action)” value is on record as “reduction”, the “growth hormone secretion from the pituitary” value is reported as “inhibitory effect” and the mammary development result is “prevents”. Further, in assay [4], the “efficacy compared with tamoxifen in preventing growth hormone and estradiol-induced mammary hyperplasia” value is reported as “at least as effective as tamoxifen”; the “growth hormone and estradiol induced mammary hyperplasia” value is given as “prevents”.
